Measured values as given in patent US5215991A, “Combination of selective alpha-adrenergic agonists and Na^+ /H^+ e x” (priority 1990, dated 1993).

Columns and labels:
Na^+ /H^+ exchange = conditions: inhibition of Na+/H+ exchange in human neutrophils; data taken from Simchowitz and Cragoe, Mol. Pharmacol. 30, 112-120, 1986; cited from earlier work
[1] = test system: New Zealand White rabbits with normotensive IOP; assay: Intraocular pressure (IOP) after topical ocular administration in normotensive New Zealand White rabbits; type: in vivo, New Zealand White rabbit; conditions: for ΔIOP at 1 Hr., (X + p) / ΔIOP at 3 Hr., (X + p): Na+/H+ inhibitor X (1%) followed 30 min later by p-amino clonidine (0.1%), mean change from pre-drug level; for ΔIOP at 1 Hr., (X + p): 1 hour post p-amino clonidine; for ΔIOP at 3 Hr., (X + p): 3 hours post p-amino clonidine; for IOP change, amiloride analog administered alone: amiloride analogs alone, Example 2; for ΔIOP at 1 Hr., (X + p) - p / ΔIOP at 3 Hr., (X + p) - p: difference between X (1%) + p-amino clonidine (0.1%) and p-amino clonidine alone; for ocular hypotensive response to the alpha2 agonist after pretreatment with the Na+/H+ exchange inhibitor: pretreatment with Na+/H+ exchange inhibitor (1%) 30 min before the alpha2 agonist, FIGS. 2-4
Description: Ocular co-administration of an alpha2 agonist and a Na^+ /H^+ exchange inhibitor to effect lowering of IOP was experimentally tested in the New Zealand White rabbit.
The effect of co-administrating of alpha2 agonists and a Na^+ /H^+ exchange inhibitor on lowering IOP was testing in New Zealand White rabbits with normotensive IOP and weighing 3-4 kg. Topical anesthesia was produced by instillation of about 5 μl of […].
Separate solution of various alpha2 agonists and a Na^+ /H^+ exchange inhibitor were prepared by dissolving the specified quantity of agonists or the Na^+ /H^+ exchange inhibitor in distilled water to obtain the concentrations shown below in Table III. The pH of the final solutions ranged from about 4 to about 7.5 as indicated by the characteristics of the individual drugs.
The animals were divided into 2 groups. One group was treated with the Na^+ /H^+ exchange inhibitor followed by an alpha2 agonist and the other group received vehicle followed by the alpha2 agonist. Intraocular pressure (IOP) was measured in both eyes for each animal using a calibrated DIGILAB® pneumatonograph. […] Thirty minutes after application of the Na^+ /H^+ exchange inhibitor or vehicle, IOP was again measured for the eye. Immediately following these measurements, 50 μl of one of the alpha2 agonists solution given in Table III was administered to the test eye in the same manner described above. Thereafter, IOP measurements for each eye of each animal were made at 30 minutes after administration of the alpha2 agonist, then hourly for 6 hours. In separate experiments, the IOP response to the Na^+ /H^+ exchange inhibitor alone was determined.
In another series of experiments, carried out in substantially the same manner as set forth in Example 1, various amiloride analogs with varying potencies at inhibiting Na^+ /H^+ exchange were co-administered with an alpha2 agonist, p-amino clonidine, and IOP determine. […] The data are expressed as mean changes from pre-drug levels.

Row | Structure (SMILES) | Ki (Na^+ /H^+ exchange) [µM] | ΔIOP at 1 Hr., (X + p) [1] | ΔIOP at 3 Hr., (X + p) [1] | IOP change, amiloride analog administered alone [1] | ΔIOP at 1 Hr., (X + p) - p [1] | ΔIOP at 3 Hr., (X + p) - p [1] | IOP response to the Na+/H+ exchange inhibitor alone ([1]; three concentrations (0.1, 0.3, 1%), topical, FIG. 1) | ocular hypotensive response to the alpha2 agonist after pretreatment with the Na+/H+ exchange inhibitor [1]
1 | CCN(c1nc(N)c(C(=O)N=C(N)N)nc1Cl)C(C)C [5-(N-ethyl-N-isopropyl) amiloride] | 0.36 | -7.2 mmHg | -5.7 mmHg | substantially inactive | -10.2 mmHg | -7.4 mmHg | did not significantly alter IOP | –
2 | NC(N)=NC(=O)c1nc(Cl)c(N2CCCCCC2)nc1N [5-(N,N-hexamethylene) amiloride] | 0.16 | -8.6 mmHg | -7.5 mmHg | substantially inactive | -11.6 mmHg | -10.1 mmHg | – | –
3 | N=C(N)NC(=O)c1nc(Cl)c(N)nc1N [Amiloride] | 83.8 | +3.0 mmHg | +2.6 mmHg | – | +0.2 mmHg | +0.6 mmHg | – | –
4 | Nc1cc(Cl)c(NC2=NCCN2)c(Cl)c1 [p-amino clonidine, p-aminoclonidine] | – | – | – | – | – | – | – | augmented
5 | Brc1c(NC2=NCCN2)ccc2nccnc12 [5-bromo-6-(2-imidazolidine-2-ylamino)quinoxaline] | – | – | – | – | – | – | – | augmented
6 | Clc1cccc(Cl)c1N=C1NCCN1 [clonidine] | – | – | – | – | – | – | – | augmented
7 | CN(C)c1nc(N)c(C(=O)N=C(N)N)nc1Cl [5-(N,N-dimethyl) amiloride] | 6.9 | +1.8 mmHg | +0.7 mmHg | substantially inactive | -1.2 mmHg | -1.9 mmHg | – | –
